# In PubChem BioAssay AID2305 (GlaxoSmithKline (GSK), 2010):
# Several values for one entry are separate records, joined by “and”; a condition that tells them apart may be missing. Identical values can stand only once.
# System: P. falciparum 3D7 growth, pLDH absorbance
# Assay: blood-stage malaria parasite growth potency – strain 3D7, dose response (AID 2305)
row,Structure (SMILES),IC50
1,COc1ccccc1NC(=O)Nc1cccc(-c2ccc(-c3nc4ccc(C(F)(F)F)cc4[nH]3)cc2)c1,310 nM
2,NC1=NC(c2ccccc2)N(OCc2ccccc2)C(N)=N1 (configuration not stated),40 nM
3,CCOc1ccccc1C(=O)Nc1cccc(-c2nc3ncccn3c2C)c1,850 nM
4,COc1cc2c(cc1OCCN1CCC(N3CCCC3)CC1)N(C(=O)/C=C/c1ccccc1Cl)CC2,660 nM
5,NC(=O)c1cccc(Nc2nccc(Nc3ccc4[nH]c(-c5ccccc5)cc4c3)n2)c1,780 nM
6,Cc1cccc(C)c1OC(=O)[C@@H](C)[C@@H](O)C1(Sc2ccccc2)CCN(C)CC1,730 nM
7,OCCN1CCN(Cc2cccc(-c3ccc(-c4nc5ccc(C(F)(F)F)cc5[nH]4)cc3)c2)CC1,560 nM
8,CCCCCCN1CCN(Cc2cccc(NC(=O)c3cc4ccccc4s3)c2)CC1,910 nM
9,CCCOC(=O)C1=C(C)NC2=C(C(=O)CC(c3ccc(OC)c(OC)c3)C2)C1c1cccc(O)c1 (configuration not stated),120 nM
10,CCC(C)c1ccc(NC(=O)c2ccc(S(=O)(=O)Nc3ccc(OC)c(N4CCN(CC5CC5)CC4)c3)cc2)cc1 (configuration not stated),700 nM
11,O=C(Nc1ccc(-c2nc3ccccc3[nH]2)cc1)c1ccc(S(=O)(=O)N2CCc3ccccc32)cc1,740 nM
12,COc1ccc(NC(=O)/C=C/c2ccc(Cl)c(Cl)c2)cc1N1CCN(C)CC1,980 nM
13,COc1ccc(N2CCN(CCCCNC(=O)c3ccc(/C=C/c4ccc(Cl)c(Cl)c4)cc3)CC2)c(OC)c1,710 nM
14,COc1ccc2nccc([C@@H](O)CN3CCC(NCc4ccc(OC)c(NC(C)=O)c4)CC3)c2c1,840 nM
15,c1ccc(CNCCn2c(-c3ccc4c(c3)CCO4)nc3c(N4CCCC4)cccc32)cc1,1130 nM
16,Cc1cccc2[nH]cc(C3CCN(CC4CCC(NC(=O)/C=C/c5ccc(Cl)c(Cl)c5)CC4)CC3)c12 (configuration not stated),160 nM
17,Cc1cc(Nc2ccccc2)nc(Nc2ccccc2)n1,800 nM
18,CC(C)NCc1cccc(-c2cccc(NC(=O)c3ccc(C#N)cc3)c2)c1,650 nM
19,O=C(Nc1ccc(-c2nc3ccccc3[nH]2)cc1)c1ccc(S(=O)(=O)N2CCCCCC2)cc1,410 nM
20,COc1cc(CN=C(Nc2ccc(-c3ccccc3)cc2)Nc2ccc(C#N)cc2O)cc(OC)c1,720 nM
21,Nc1ncc(-c2cc3ccccc3o2)c(N)n1,1410 nM
22,CCOc1cc(C)ccc1C1CCN(CCCCNC(=O)c2ccc(-c3ccc(Cl)cn3)cc2)CC1,1610 nM
23,Cc1ccc(-n2c(=O)c3cccnc3n2CC(=O)Nc2cccc(C)c2C)cc1,860 nM
24,Cn1nc(-c2cccc(CNC3CCc4ccccc43)c2)c2cnc(NC3CCCC3)nc21 (configuration not stated),860 nM
25,CC(C)(C)c1ccc(NC(=O)Nc2ccc(Cn3ncc(N4CCCNCC4)c(Cl)c3=O)cc2)cc1,750 nM

row,Structure (SMILES),IC50
1,Cc1cc(N(C)C)nc(Nc2ccc(NC(=O)c3ccccc3F)cc2)n1,1160 nM
2,Cc1[nH]c2cccc(F)c2c(=O)c1Cc1ccc(Cl)cc1 (tested in a mixture with another compound),230 nM and 350 nM
3,COc1ccc2nccc(N3CCC(CCNCc4cc5c(cn4)OCCO5)CC3)c2n1,220 nM
4,CCCC(CNCc1cccc(C)c1)CNc1cc(=O)c2ccccc2[nH]1 (configuration not stated),630 nM
5,COc1ccc(C=NNc2cc(C)nc3ccc(C)cc23)c2ccccc12,860 nM
6,Cc1onc(-c2ccccc2)c1-c1nc(NCCC(c2ccccc2)c2ccccc2)no1,840 nM
7,N#CC(NC(=O)C=Cc1ccccc1)c1ccccc1 (configuration not stated),180 nM
8,CN(C)CCN(Cc1ccccc1-c1ccc(CNCCc2ccccc2)cc1)C(=O)NC1CCCCC1,910 nM
9,FC(F)(F)c1cccnc1N1CCC(Nc2nc3ccc(Cl)cc3[nH]2)CC1,650 nM
10,COc1ccc2[nH]cc(C3CCN(Cc4ccc(NC(=O)c5ccc(-c6ccccc6)cc5)cc4)CC3)c2c1,770 nM
11,O=C(NC=Nc1cc([N+](=O)[O-])c(-c2cccnc2)n1-c1ccc(O)cc1)c1ccccc1,300 nM
12,COc1ccc2c(NN=Cc3ccccc3Cl)cc(C)nc2c1,370 nM
13,CC[C@H]1CN2CC[C@@H]1C[C@H]2[C@H](O)c1cc(-c2cc(Cl)cc(Cl)c2)nc2ccc(OC)cc12,240 nM
14,COc1cccc(CCNCCCCCCNCCc2ccc(Cl)cc2)c1,1010 nM
15,CCCC(CNCc1cccc(I)c1)CNc1cc(=O)c2ccccc2[nH]1 (configuration not stated),470 nM
16,Cc1ccc(OCC2CCN(c3ncc(C(=O)NC4CC4)cc3Cl)CC2)cc1,1090 nM
17,O=C(/C=C/c1ccc(Cl)c(Cl)c1)NC1[C@@H]2CC[C@H]1CC(CN1CCC(c3c[nH]c4ccccc34)CC1)C2 (some centres not stated),200 nM
18,CCc1c(C)nc(-n2nc(C)cc2NC(=O)CCc2ccccc2)[nH]c1=O,750 nM
19,Cc1cc(NN=Cc2ccc(F)cc2)c2cc(C(F)(F)F)ccc2n1,230 nM
20,COc1c(C2CCN(CCCCNC(=O)c3ccc(-c4ccc(C(F)(F)F)cc4)c(C(=O)OC(C)C)c3)CC2)ccc2c1CCCC2,860 nM
21,CCNc1cc(C(=O)N[C@@H](Cc2ccco2)[C@H](O)CNC2CCCCC2)cc(N2CCCCS2(=O)=O)c1,1010 nM
22,CSc1ccc(CN2CCC(NC(=O)c3ccc(-c4cccc(C(F)(F)F)c4)s3)CC2)cc1,1220 nM
23,COc1ccc2ncc(F)c(CCN3CCC(NCc4cc5c(cn4)OCCS5)CC3)c2c1,780 nM
24,O=C(Nc1ccc2c(c1)CCN(C1CCC1)CC2)c1cn(-c2ccccc2)nc1-c1ccccc1,810 nM
25,Cc1cccc2[nH]c(-c3cccc(-c4cccc(CNCCc5ccncc5)c4)c3)nc12,140 nM

row,Structure (SMILES),IC50
1,CCCN(CCC)C(=O)c1cc(C(=O)N[C@@H](Cc2ccccc2)[C@H](O)CNC(C)(C)c2cccc(C(F)(F)F)c2)cc(N2CCCCS2(=O)=O)c1,40 nM
2,O=C(O)c1ccc(-c2c[nH]c3ncc(-c4ccc(Cl)cc4)cc23)cc1,730 nM
3,Cc1ncc([N+](=O)[O-])n1CCOC(=O)NC(NCC1COc2ccccc2O1)C(Cl)(Cl)Cl (configuration not stated),220 nM
4,Clc1ccc2c(N3CCCNCC3)ccnc2c1,480 nM
5,N#CC(c1ccc(Br)cc1)c1ccc2c(C(F)(F)F)cc(C(F)(F)F)nc2n1 (configuration not stated),440 nM
6,CCc1cn2c3c(cc(C(=O)N[C@@H](Cc4ccccc4)[C@H](O)CNCC(C)C)cc13)N(C)S(=O)(=O)CC2,40 nM
7,O=c1cc(NCCCCNCc2cccc(Br)c2)[nH]c2ccccc12,730 nM
8,CN1CCN(CC(=O)Nc2cccc(-c3ccc(-c4nc5ccc(F)cc5[nH]4)s3)c2)CC1,680 nM
9,O=C(NC1CCN(Cc2ccccc2)CC1)c1cc(-c2cccnc2)nc2ccc(Cl)cc12,760 nM
10,CN(C)Cc1ccc(-c2cc3c(-c4ccc(CN(C)C)cc4)ccnc3[nH]2)cc1,890 nM
11,CC(C)Oc1ccc(N2CCN(CCCCNC(=O)c3ccc(NC(=O)c4ccc(Cl)cc4)cc3)CC2)c(OC(C)C)c1,510 nM
12,Cc1cc(NC(=O)c2cccs2)ccc1OC1CCN(Cc2ccccc2)CC1,870 nM
13,CCOc1ccc(Nc2cc(C)nc(Nc3ccc(OCC)cc3)n2)cc1,870 nM
14,COC(=O)c1cc(OC2CCOC2=O)cc2c1OC(C)(C)O2 (configuration not stated),810 nM
15,COc1ccc(C=NNc2nc3ccccc3[nH]2)cc1O,920 nM
16,CC(C)c1ccc(NC(=O)c2ccc(C(=O)NC3CCN(CC4CCCCC4)CC3)cc2)cc1,650 nM
17,CN(C)CCCNCc1ccc(-c2ccc(CNCCc3ccccc3)cc2)cc1,990 nM
18,CNc1ccc(CNCc2cccc(-c3ccc(-c4nc5ccccc5[nH]4)cc3)c2)cc1,300 nM
19,O=C(/C=C/c1ccc(Cl)c(Cl)c1)NCCCCCCN1CCCN(C(=O)Nc2cccc(C(F)(F)F)c2)CC1,790 nM
20,Cc1ccc(C)c(S(=O)(=O)NCC2CCN(Cc3ccc(O)cc3)CC2)c1,980 nM
21,CC(Cc1ccc(SC(C)(C)C)cc1)NCC(O)c1cccc(Cl)c1 (configuration not stated),320 nM
22,Cc1cc(C2CCN(CCCCNC(=O)c3ccc(-c4ccc(C(F)(F)F)cc4)cc3)CC2)c(C)cc1OCC#N,1010 nM
23,CC(C)(C)c1ccc(CN2CCC(CNC(=O)c3cc(-c4cccc(Cl)c4)cs3)C2)cc1 (configuration not stated),1160 nM
24,CCOc1ccc2nc(C)cc(NN=Cc3ccccc3)c2c1,780 nM
25,O=C(/C=C/c1ccc(Cl)c(Cl)c1)NC[C@@H]1CCC[C@H](CN2CCC(c3c[nH]c4ccccc34)CC2)C1,730 nM

row,Structure (SMILES),IC50
1,Cc1ccc(-c2nnc(Nc3ccc(CC(N)=O)cc3)c3ccccc23)cc1S(=O)(=O)NCC1CCCO1 (configuration not stated),790 nM
2,C[C@H](N[C@H]1CCCc2c1[nH]c1ccc(Br)cc21)c1ccccc1,220 nM
3,O[C@@H](c1ccccc1)[C@@H]1CN(Cc2ccccc2)CC[C@@]1(O)c1ccccc1,850 nM
4,NC(N)=NN=Cc1ccc2c(c1)Cc1ccccc1-2,590 nM
5,COc1ccc(S(=O)(=O)NCCCC2CCN(CCCCCNC(=O)C=Cc3ccc(Cl)c(Cl)c3)CC2)cc1,1040 nM
6,CN1CCC(C(=O)Nc2ccc(-c3cccc(-c4nc5ccc(C(F)(F)F)cc5[nH]4)c3)cc2)CC1,580 nM
7,CC(C)(C)c1ccc(CN2CCC(CNC(=O)c3cc(-c4ccccc4Cl)cs3)C2)cc1 (configuration not stated),860 nM
8,Cc1c(F)cc(C(=O)NC2CC2)cc1-c1ccc2c(cnn2S(=O)(=O)c2ccc(C#N)cc2)c1,100 nM
9,NC(N)=Nc1ccc(NC(=O)Nc2ccc(N=C(N)N)cc2)cc1,390 nM
10,Nc1nc(N)c2c(Oc3cccc4ccccc34)cccc2n1,1010 nM
11,CCOc1ccccc1N1CCN(CCCNC(=O)/C(=C/C=C/c2cc3cc(Cl)c(Cl)cc3[nH]2)OC)CC1,850 nM
12,COC(=O)c1cccc(NC(=O)NC2CCN(c3ccnc(Nc4ccc(OC)cc4)n3)C2)c1 (configuration not stated),470 nM
13,COc1ccc2ncn(-c3ccc(C(N)=O)c(OCc4ccccc4C(F)(F)F)c3)c2c1,540 nM
14,O=C(CCCCCc1ccccc1)NC1CCC(CN2CCC(c3c[nH]c4ccccc34)CC2)CC1 (configuration not stated),1140 nM
15,COc1ccccc1NC(=O)Nc1cccc(-c2ccc(-c3nc4c(C)cccc4[nH]3)s2)c1,580 nM
16,Cc1ccc(C(=O)Nc2ccnc(N(C)C3CCN(Cc4cccc(O)c4)CC3)c2)cn1,1880 nM
17,CCCc1cc(Cc2cnc(N)nc2N)ccc1OCCCCCC(=O)OCC,500 nM
18,C=CCOc1ccc(-c2c(C)[nH]c(C)c(Br)c2=O)cc1,280 nM
19,N#Cc1ccc(N2CCN(Cc3cccc(-c4cccc(-c5nc6ccc(C(F)(F)F)cc6[nH]5)c4)c3)CC2)nc1,960 nM
20,COc1cc(C=NNc2nc(Nc3ccccc3)nc(Nc3ccccc3)n2)ccc1OCc1ccccc1[N+](=O)[O-],810 nM
21,CN(C)Cc1cccc(-c2cc3c(-c4cnn(C)c4)c(Cl)cnc3[nH]2)c1,910 nM
22,CC(C)(C)OC(=O)NCc1ccc(Nc2nnc(-c3cccc(OCC(=O)NCc4cc(C(F)(F)F)cc(C(F)(F)F)c4)c3)o2)cc1,830 nM
